Results on 24 compounds are retold here after US20090062253A1, “HETEROCYCLODIAZEPINE CANNABINOID RECEPTOR MODULATORS FOR TREATMENT OF DISEASE” (KALYPSYS, INC., priority 2007, published 2009).

The target of one assay is T1, Human CB2 (Homo sapiens, UniProt P34972).
T1 construct: expressed in transfected cells; membrane preparation
The assay can be described thus: Human CB2 Radioligand Binding Assay. Particulars: membranes from stably transfected CHO CB2 cells; competition with [3H] CP-55,940; read-out: CB2 Ligand Binding Asssay. In outline: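 Filtration competition against [3H]CP-55,940 at its Kd on membranes from CHO cells stably expressing human CB2; compounds at 10 uM single point or dose-response, 1% DMSO. Buffer 50 mM Tris-HCl pH 7.4, EGTA, MgCl2, 5.0 mg/ml BSA; 90 min at 30° C, scintillation read; 100 nM CP-55,940 = 100%.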

Assay [1] addresses T2, human cannabinoid receptor type 1 (Homo sapiens, UniProt P21554).
T2 construct: purchased Perkin Elmer RBHCB1M; host or cells: HEK 293 EBNA cells
The assay can be described thus: Human CB1 Radioligand Binding Assay (basis of selectivity CB2 vs. CB1). In outline:
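Filtration competition binding against [3H] CP-55,940 at its Kd, using membranes from HEK 293 EBNA cells expressing human CB1; 90 minutes at 30° C in 50 mM Tris-HCl pH 7.4, 2.5 mM EDTA, 5 mM MgCl2, 5.0 mg/ml BSA, 1% DMSO. Single point 10 uM or dose-response; 100 nM CP-55,940 defined 100% efficacy.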

T2 sequence (P21554 whole entry): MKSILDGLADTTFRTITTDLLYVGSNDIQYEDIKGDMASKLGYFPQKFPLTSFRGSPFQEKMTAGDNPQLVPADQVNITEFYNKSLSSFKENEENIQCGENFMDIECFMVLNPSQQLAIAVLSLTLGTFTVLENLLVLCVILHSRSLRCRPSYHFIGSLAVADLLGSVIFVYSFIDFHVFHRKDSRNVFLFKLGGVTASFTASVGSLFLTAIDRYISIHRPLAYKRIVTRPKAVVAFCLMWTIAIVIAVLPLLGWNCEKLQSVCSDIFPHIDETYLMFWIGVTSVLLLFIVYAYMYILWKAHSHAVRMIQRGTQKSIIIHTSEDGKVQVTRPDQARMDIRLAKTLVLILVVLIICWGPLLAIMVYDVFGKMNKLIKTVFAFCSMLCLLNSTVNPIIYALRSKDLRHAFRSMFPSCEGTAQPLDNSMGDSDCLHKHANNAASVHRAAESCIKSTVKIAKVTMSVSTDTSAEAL
T1 sequence (P34972 whole entry): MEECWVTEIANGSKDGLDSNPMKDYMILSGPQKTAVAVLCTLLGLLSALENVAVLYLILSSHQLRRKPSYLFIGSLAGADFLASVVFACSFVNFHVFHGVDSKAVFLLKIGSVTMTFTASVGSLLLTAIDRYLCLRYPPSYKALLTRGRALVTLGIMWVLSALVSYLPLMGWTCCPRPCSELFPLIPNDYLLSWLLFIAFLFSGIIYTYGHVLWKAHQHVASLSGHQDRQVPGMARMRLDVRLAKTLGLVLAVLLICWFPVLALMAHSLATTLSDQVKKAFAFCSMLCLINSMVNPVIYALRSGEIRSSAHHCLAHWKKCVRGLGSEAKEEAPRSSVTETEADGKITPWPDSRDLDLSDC

As to `CC(C)(C)c1ccc(C2=C(NC(=O)Nc3ccc(Cl)cc3)CCCn3cccc32)cc1` [Example 83, (E)-1-(9-(4-tert-Butylphenyl)-6,7-dihydro-5H-pyrrolo[1,2-a]azepin-8-yl)-3-(4-chlorophenyl)urea], the IC50 (radioligand displacement) on Human CB2 is under 1 µM. For the same compound, the “Selectivity, CB2 vs. CB1” value in assay [1] is “+ (+ indicates > 10-fold)”.

For `CC(C)(C)c1ccc(C2=C(NC(=O)Nc3ccc(F)cc3F)CCCn3cccc32)cc1` [Example 84, (E)-1-(9-(4-tert-Butylphenyl)-6,7-dihydro-5H-pyrrolo[1,2-a]azepin-8-yl)-3-(2,4-difluorophenyl)urea], the IC50 (radioligand displacement) at Human CB2 was under 1 µM. For the same compound, in assay [1], the “Selectivity, CB2 vs. CB1” value is “+ (+ indicates > 10-fold)”.

Take `CC(C)(C)c1ccc(C2=C(NC(=O)Nc3ccc(F)c(F)c3)CCCn3cccc32)cc1` [Example 85, (E)-1-(9-(4-tert-Butylphenyl)-6,7-dihydro-5H-pyrrolo[1,2-a]azepin-8-yl)-3-(3,4-difluorophenyl)urea]: at Human CB2, the IC50 (radioligand displacement) is under 1 µM. In assay [1], the “Selectivity, CB2 vs. CB1” value is given as “+ (+ indicates > 10-fold)”.

Consider `CC(C)(C)c1ccc(C2=C(NC(=O)Nc3ccc(Cl)cc3Cl)CCCn3cccc32)cc1` [Example 86, (E)-1-(9-(4-tert-Butylphenyl)-6,7-dihydro-5H-pyrrolo[1,2-a]azepin-8-yl)-3-(2,4-dichlorophenyl)urea], for which, on Human CB2, the IC50 (radioligand displacement) was under 1 µM. Further, the “Selectivity, CB2 vs. CB1” value in assay [1] is recorded as “+ (+ indicates > 10-fold)”.

Turning to `CC(C)(C)c1ccc(C2=C(NC(=O)Nc3ccc(Cl)c(Cl)c3)CCCn3cccc32)cc1` [Example 87, (E)-1-(9-(4-tert-Butylphenyl)-6,7-dihydro-5H-pyrrolo[1,2-a]azepin-8-yl)-3-(3,4-dichlorophenyl)urea], the IC50 (radioligand displacement) on Human CB2 is over 1 µM. Further, in assay [1], the “Selectivity, CB2 vs. CB1” value was “+ (+ indicates > 10-fold)”.

In the case of `CC(C)(C)c1ccc(C2=C(NC(=O)Nc3ccc(C(F)(F)F)cc3)CCCn3cccc32)cc1` [Example 88, (E)-1-(9-(4-tert-Butylphenyl)-6,7-dihydro-5H-pyrrolo[1,2-a]azepin-8-yl)-3-(4-(trifluoromethyl)phenyl)urea], at Human CB2, the IC50 (radioligand displacement) is under 1 µM. The “Selectivity, CB2 vs. CB1” value in assay [1] was “+ (+ indicates > 10-fold)”.

`COc1ccc(COC(=O)NC2=C(c3ccc(C(C)(C)C)cc3)c3cccn3CCC2)cc1` [Example 89, (E)-4-Methoxybenzyl 9-(4-tert-butylphenyl)-6,7-dihydro-5H-pyrrolo[1,2-a]azepin-8-ylcarbamate]: on Human CB2, the IC50 (radioligand displacement) was over 1 µM. In addition, the “Selectivity, CB2 vs. CB1” value in assay [1] is “− (− indicates < 10-fold)”.

Regarding `CC(C)(C)c1ccc(C2c3cccn3CCCC2C(=O)Nc2ccc(F)c(F)c2)cc1` (stereo not drawn) [Example 91, 9-(4-tert-Butylphenyl)-N-(3,4-difluorophenyl)-6,7,8,9-tetrahydro-5H-pyrrolo[1,2-a]azepine-8-carboxamide], the IC50 (radioligand displacement) on Human CB2 is under 1 µM. Besides, the “Selectivity, CB2 vs. CB1” value in assay [1] is listed as “+ (+ indicates > 10-fold)”.

Turning to `CC(C)(C)c1ccc(C2c3cccn3CCCC2C(=O)Nc2ccc(Cl)cc2)cc1` (stereo not drawn) [Example 92, 9-(4-tert-Butylphenyl)-N-(4-chlorophenyl)-6,7,8,9-tetrahydro-5H-pyrrolo[1,2-a]azepine-8-carboxamide], the IC50 (radioligand displacement) on Human CB2 is under 1 µM. In addition, the “Selectivity, CB2 vs. CB1” value in assay [1] is recorded as “+ (+ indicates > 10-fold)”.

Regarding `CC(C)(C)c1ccc(C2c3cccn3CCCC2C(=O)Nc2ccc(C(F)(F)F)cc2)cc1` (stereo not drawn) [Example 93, 9-(4-tert-Butylphenyl)-N-(4-(trifluoromethyl)phenyl)-6,7,8,9-tetrahydro-5H-pyrrolo[1,2-a]azepine-8-carboxamide], the IC50 (radioligand displacement) on Human CB2 is under 1 µM. Further, in assay [1], the “Selectivity, CB2 vs. CB1” value is “− (− indicates < 10-fold)”.

Take `CC(C)(C)c1ccc(C2c3cccn3CCCC2C(=O)Nc2ccc(OC(F)(F)F)cc2)cc1` (stereo not drawn) [Example 94, 9-(4-tert-Butylphenyl)-N-(4-(trifluoromethoxy)phenyl)-6,7,8,9-tetrahydro-5H-pyrrolo[1,2-a]azepine-8-carboxamide]: the IC50 (radioligand displacement) at Human CB2 is under 1 µM. Besides, the “Selectivity, CB2 vs. CB1” value in assay [1] is “− (− indicates < 10-fold)”.

`CC(C)(C)c1ccc(C2c3cccn3CCC2C(=O)Nc2ccc(C(F)(F)F)cc2)cc1` (stereo not drawn) [Example 96, 8-(4-tert-Butylphenyl)-N-(4-(trifluoromethyl)phenyl)-5,6,7,8-tetrahydroindolizine-7-carboxamide]: the IC50 (radioligand displacement) at Human CB2 is over 1 µM. For the same compound, the “Selectivity, CB2 vs. CB1” value in assay [1] is on record as “− (− indicates < 10-fold)”.

In the case of `CC(C)(C)c1ccc(C2c3cccn3CCC2C(=O)Nc2ccc(OC(F)(F)F)cc2)cc1` (stereo not drawn) [Example 97, 8-(4-tert-Butylphenyl)-N-(4-(trifluoromethoxy)phenyl)-5,6,7,8-tetrahydroindolizine-7-carboxamide], the IC50 (radioligand displacement) at Human CB2 is over 1 µM. For the same compound, in assay [1], the “Selectivity, CB2 vs. CB1” value was “− (− indicates < 10-fold)”.

`CC(C)(C)c1ccc(C2[C@@H]3CCCN3CCCN2C(=O)Nc2ccc(F)cc2F)cc1` (stereo partly drawn) [Example 129, (9aS)-1-(4-tert-Butylphenyl)-N-(2,4-difluorophenyl)hexahydro-1H-pyrrolo[1,2-a][1,4]diazepine-2(3H)-carboxamide]: on Human CB2, the IC50 (radioligand displacement) is under 1 µM. In assay [1], the “Selectivity, CB2 vs. CB1” value is “+ (+ indicates > 10-fold)”.

For the compound `CC(C)(C)c1ccc(C2[C@@H]3CCCN3CCCN2C(=O)Nc2ccc(F)c(F)c2)cc1` (stereo partly drawn) [Example 130, (9aS)-1-(4-tert-Butylphenyl)-N-(3,4-difluorophenyl)hexahydro-1H-pyrrolo[1,2-a][1,4]diazepine-2(3H)-carboxamide], on Human CB2, the IC50 (radioligand displacement) was under 1 µM. In addition, the “Selectivity, CB2 vs. CB1” value in assay [1] was “+ (+ indicates > 10-fold)”.

In the case of `CC(C)(C)c1ccc(C2[C@@H]3CCCN3CCCN2C(=O)Nc2ccc(Cl)cc2)cc1` (stereo partly drawn) [Example 131, (9aS)-1-(4-tert-Butylphenyl)-N-(4-chlorophenyl)hexahydro-1H-pyrrolo[1,2-a][1,4]diazepine-2(3H)-carboxamide], the IC50 (radioligand displacement) at Human CB2 is under 1 µM. For the same compound, the “Selectivity, CB2 vs. CB1” value in assay [1] is “+ (+ indicates > 10-fold)”.

For the compound `CC(C)(C)c1ccc(C2=C(C(=O)Nc3ccc(C(F)(F)F)cc3)CCn3cccc32)cc1` [Example 132, 8-(4-tert-Butylphenyl)-N-(4-(trifluoromethyl)phenyl)-5,6-dihydroindolizine-7-carboxamide], the IC50 (radioligand displacement) on Human CB2 was under 1 µM. Besides, the “Selectivity, CB2 vs. CB1” value in assay [1] was “− (− indicates < 10-fold)”.

Take `CC(C)(C)c1ccc(C2c3cccnc3CCCN2C(=O)Nc2ccc(F)cc2F)cc1` (stereo not drawn) [Example 134, 5-(4-tert-Butylphenyl)-N-(2,4-difluorophenyl)-8,9-dihydro-5H-pyrido[3,2-c]azepine-6(7H)-carboxamide]: on Human CB2, the IC50 (radioligand displacement) is under 1 µM. Also, the “Selectivity, CB2 vs. CB1” value in assay [1] is listed as “+ (+ indicates > 10-fold)”.

On to `CC(C)(C)c1ccc(C2c3cccnc3CCCN2C(=O)Nc2ccc(F)c(F)c2)cc1` (stereo not drawn) [Example 135, 5-(4-tert-Butylphenyl)-N-(3,4-difluorophenyl)-8,9-dihydro-5H-pyrido[3,2-c]azepine-6(7H)-carboxamide], for which the IC50 (radioligand displacement) on Human CB2 is under 1 µM. Besides, in assay [1], the “Selectivity, CB2 vs. CB1” value is reported as “+ (+ indicates > 10-fold)”.

As for `CC(C)(C)c1ccc(C2c3cccnc3CCCN2C(=O)Nc2ccc(Cl)cc2Cl)cc1` (stereo not drawn) [Example 136, 5-(4-tert-Butylphenyl)-N-(2,4-dichlorophenyl)-8,9-dihydro-5H-pyrido[3,2-c]azepine-6(7H)-carboxamide], the IC50 (radioligand displacement) on Human CB2 was over 1 µM. The “Selectivity, CB2 vs. CB1” value in assay [1] is reported as “+ (+ indicates > 10-fold)”.

In the case of `CC(C)(C)c1ccc(C2c3cccnc3OCCN2C(=O)Nc2ccc(F)cc2F)cc1` (stereo not drawn) [Example 138, 5-(4-tert-Butylphenyl)-N-(2,4-difluorophenyl)-2,3-dihydropyrido[3,2-f][1,4]oxazepine-4(5H)-carboxamide], the IC50 (radioligand displacement) at Human CB2 is over 1 µM. Besides, the “Selectivity, CB2 vs. CB1” value in assay [1] is “− (− indicates < 10-fold)”.

Consider `CC(C)(C)c1ccc(C2c3cccnc3OCCN2C(=O)Nc2ccc(F)c(F)c2)cc1` (stereo not drawn) [Example 139, 5-(4-tert-Butylphenyl)-N-(3,4-difluorophenyl)-2,3-dihydropyrido[3,2-f][1,4]oxazepine-4(5H)-carboxamide], for which the IC50 (radioligand displacement) at Human CB2 is over 1 µM. Also, the “Selectivity, CB2 vs. CB1” value in assay [1] was “+ (+ indicates > 10-fold)”.

Take `CC(C)(C)c1ccc(C2c3cccnc3OCCN2C(=O)Nc2ccc(Cl)cc2Cl)cc1` (stereo not drawn) [Example 140, 5-(4-tert-Butylphenyl)-N-(2,4-dichlorophenyl)-2,3-dihydropyrido[3,2-f][1,4]oxazepine-4(5H)-carboxamide]: the IC50 (radioligand displacement) at Human CB2 was over 1 µM. The “Selectivity, CB2 vs. CB1” value in assay [1] is recorded as “− (− indicates < 10-fold)”.

As for “(8,9-cis)-9-Phenyl-N-(4-(trifluoromethyl)phenyl)-6,7,8,9-tetrahydro-5H-pyrrolo[1,2-a]azepine-8-carboxamide [Example 112]”, at Human CB2, the IC50 (radioligand displacement) was over 1 µM. Moreover, the “Selectivity, CB2 vs. CB1” value in assay [1] is reported as “− (− indicates < 10-fold)”.
